From paper PMC9923724, “Half sandwich-type osmium, ruthenium, iridium and rhodium complexes with bidentate glycosyl heterocyclic ligands induce cytostasis in platinum-resistant ovarian cancer cells and bacteriostasis in Gram-positive multiresistant bacteria” (Frontiers in Chemistry, 2023)
Values joined by “and” are separate entries in the source; they are usually repeats but may differ in a detail not shown here. Identical values can stand only once.

Legend:
[1] = test system: A2780 ovarian cancer cells; test: SRB assay (cytostasis, 48 h) on A2780 cells; assay type: cell-based; conditions: 48 h treatment
Procedure: (§1) First, we assessed a set of osmium complexes (similar to Ia [[Kacsir et al., 2022]) in Figure 1] and their sugar-derived ligands, in which the benzoyl protective groups on the carbohydrate moiety were replaced by aliphatic acyl groups of different chain length (straight chain C3-C7–CO). Osmium was selected as a central ion, since osmium complexes had the best biological activity in our previous studies ([Balázs et al., 2022]; [Kacsir et al., 2022]). These compounds were tested on A2780 ovarian cancer cells for toxicity and cytostasis. The therapy of ovarian cancer is centered around platinum compounds ([Brown et al., 2019]; [Sipos et al., 2021]), therefore, it was logical to use a cellular model of ovarian cancer for the initial testing of the compounds. Toxicity was assessed using the MTT assay that measures the activity of mitochondrial complex I. We chose 4 h long treatment as in an MTT assay this time point is suitable to detect rapid, direct toxicity. Cytostasis was assessed after 48 h of treatment using the SRB assay that assesses protein content that corresponds to cell count. The characteristics of the compounds are detailed in Table 2.
(§2) 3 × 10^3 A2780 cells, were plated to 96 well plates. Cells were treated with the compounds in the concentrations indicated for either 4 h for an MTT assay or for 48 h for an SRB assay. Data is represented as average ± SD, from three biological replicates; individual assays were performed in duplicates. Values were normalized for vehicle treated cells, absorbance for vehicle treated cells equals to 1. […] Except for the Os-6 complex, Two-way ANOVA test was performed and all values were compared with each other (Tukey’s post hoc test). […] Non-linear regression was performed on the data.
(§3) 3 × 10^3 A2780 cells, 2 × 10^3 ID8 cells and 4 × 10^3 primary fibroblasts were plated to 96 well plates. Cells were treated with the compounds in the concentrations indicated for either 4 h for an MTT assay or for 48 h for an SRB assay. Data is represented as average ± SD, from three biological replicates; individual assays were performed in duplicates. Values were normalized for vehicle treated cells, absorbance for vehicle treated cells equals to 1. Statistical significance was assessed using two-way ANOVA test comparing the free ligand and each complex as a complex-ligand pair. Before the test normality was assessed using the D’Agostino-Pearson test. The ID8 SRB Ir-7+L-7 dataset had lognormal distribution. […] All other datasets had normal distribution. For better visibility the p values are presented in an excel sheet at https://figshare.com/s/2c942a812caea8869a67. Non-linear regression was performed on the A2780 SRB and the ID8 SRB datasets.
The assay was performed similar to ([Kovács et al., 2019]). Cells were seeded in 96 well plates the day before the assay. Cells were treated with the compounds for 48 h. Cells were fixed with 10% trichloroacetic acid (TCA). Fixed cells were washed in distilled water 3 times followed by staining with SRB (0.4 m/V% dissolved in 1% acetic acid) for 10 min. Stained cells were washed in 1% acetic acid 5 times; acetic acid was removed and cells were left to dry. Protein-bound SRB was released by adding 100 µl 10 mM Tris base. Plates were measured in a plate photometer (Thermo Scientific Multiscan GO spectrophotometer, Waltham, MA, United States) at 540 nm. On each plate wells were designed to contain vehicle-treated cells. In calculations the readings for these wells was considered as 1 and all readings were expressed relative to these values.
Statistical analysis was performed using 8.0.1 version of Graphpad Prism. Values were tested for normal distribution using the D’Agostino and Pearson normality test. When necessary, values were log normalized or were normalized using the Box-Cox normalization method ([Box and Cox, 1964]) as indicated in the figure captions. […]

[2] = test system: A2780 ovarian cancer cells; test: MTT reduction assay (rapid toxicity, 4 h) on A2780 cells; assay type: cell-based; conditions: 4 h treatment
Procedure: as §1, §2, §3
MTT reduction assay measures the activity of mitochondrial complex I and can be used to detect toxicity ([Virág et al., 1998]; [Henslee et al., 2016]). The assay was performed similar to ([Bakondi et al., 2003]). Briefly, cells were plated in 96 well plates the day before the assay. Cells were treated with the compounds for 4 h, then MTT was added in 0.5 mg/ml final concentration and cells were incubated at 37°C in a cell incubator. Culture media was removed and the reduced MTT dye was dissolved in dimethyl-sulfoxide (DMSO) and plates were measured in a plate photometer (Thermo Scientific Multiscan GO spectrophotometer, Waltham, MA, United States) at 540 nm. On each plate wells were designed to contain untreated/vehicle-treated cells. In calculations the readings for these wells was considered as 1 and all readings were expressed relative to these values.

[3] = Determination of the distribution coefficients (logD); assay type: physicochemical; conditions: distribution coefficient
[4] = test system: Enterococcus faecalis (ATCC29212); test: Broth microdilution MIC, Enterococcus faecalis reference strain; assay type: cell-based; conditions: for MIC, Reference E. faecalis: Enterococcus faecalis ATCC29212, 24 h; for MIC (μM) (E. faecalis), Figure 11: reference strain ATCC29212, printed in the picture
Procedure: (§4) The MIC values of the complexes were determined against the reference strains of S. aureus (ATCC29213) and E. faecalis. (ATCC29212) and against clinical VRE and MRSA isolates by microdilution assays (repeated at least twice in duplicates) as described in Materials and Methods. The numbers indicate how many isolates were susceptible to the compound out of those tested; i.e., 1/6 stands for 1 isolate was susceptible out of 6 tested. […] Cells were harvested and lysed. Cellular proteins was separated on a 10% SDS-PAGE gel and were blotted. Blots were probed with 4HNE antibody (top blot), the lower blot was stained with amido black. Arrows point at band of interest. Experiments were repeated three times and a representative blot is shown. On the blots brightness and contrast were adjusted. […] Each was matched to a substance and strain by its position over the x-axis categories. / Ir-7: ND and 0/3 (left plot) and ND and 0/6 (right plot) were matched to E. faecalis/VRE and S. aureus/MRSA by position only.
(§5) We used the reference strains of Staphylococcus aureus (ATCC29213), and Enterococcus faecalis (ATCC29212) that were purchased from ATCC (Manassas, VA, United States).
(§6) Microdilution experiments were performed according to the standards of EUCAST ([EUCAST, 2021]). […] The inoculated plates were incubated for 24 h at 37°C then were assessed visually. […] All experiments were performed at least twice in duplicates.

[5] = test system: vancomycin-resistant Enterococcus (VRE) clinical isolates; test: Broth microdilution MIC, clinical VRE isolates; assay type: cell-based, E. faecium; conditions: for MIC against clinical VRE isolates (as a group): 3 clinical VRE isolates; for VRE isolates susceptible out of those tested: 3 isolates tested, susceptible = MIC up to 40 µM; for MIC, VRE 25 051: clinical isolate 25 051, nephrostoma; for MIC, VRE 25 051 / MIC, VRE 25 498 / MIC, VRE 27 085: 2018; for MIC, VRE 25 498: clinical isolate 25 498, rectal swab; for MIC, VRE 27 085: clinical isolate 27 085, wound
Procedure: as §4
(§7) We used a set of clinical isloates of S. aureus and E. faecium that were collected at the Medical Center of the University of Debrecen (Hungary) between 01. 01. 2018.—31. 12. 2020. The clinical isolates were identified using a Microflex MALDI-TOF mass spectrometer (Bruker, Billerica, MA, United States). Antibiotic susceptibility of the isolates was tested following the European Committee on Antimicrobial Susceptibility Testing ([EUCAST, 2021]) guidelines valid at the time of collection.
as §6

[6] = test system: Staphylococcus aureus (ATCC29213); test: Broth microdilution MIC, Staphylococcus aureus reference strain; assay type: cell-based; conditions: for MIC, Reference S. aureus: Staphylococcus aureus ATCC29213, 24 h; for MIC (μM) (S. aureus), Figure 11: reference strain ATCC29213
Procedure: as §4, §5, §6

[7] = test system: methicillin-resistant Staphylococcus aureus (MRSA) clinical isolates; test: Broth microdilution MIC, clinical MRSA isolates; assay type: cell-based; conditions: for MIC against clinical MRSA isolates (as a group): 6 clinical MRSA isolates; for MRSA isolates susceptible out of those tested: 6 isolates tested, susceptible = MIC up to 40 µM; for MIC, MRSA 20 426: clinical isolate 20 426, blood, 2020; for MIC, MRSA 24 035: clinical isolate 24 035, wound; for MIC, MRSA 24 035 / MIC, MRSA 24 268 / MIC, MRSA 24 272 / MIC, MRSA 24 328 / MIC, MRSA 24 408: 2018; for MIC, MRSA 24 268: clinical isolate 24 268, throat; for MIC, MRSA 24 272: clinical isolate 24 272, throat; for MIC, MRSA 24 328: clinical isolate 24 328, throat; for MIC, MRSA 24 408: clinical isolate 24 408, bronchial
Procedure: as §4, §7, §6

| Compound | A2780 SRB Max. (maximal inhibition) [1] | A2780 MTT Max. (maximal inhibition) [2] | LogD [3] | VRE isolates susceptible out of those tested [5] | MIC, VRE 25 051 [5] | MIC, VRE 25 498 [5] | MIC, VRE 27 085 [5] | MIC, Reference S. aureus [6] | MRSA isolates susceptible out of those tested [7] | MIC, MRSA 20 426 [7] | MIC, MRSA 24 035 [7] | MIC, MRSA 24 268 [7] | MIC, MRSA 24 272 [7] | MIC, MRSA 24 328 [7] | MIC, MRSA 24 408 [7] | further results |
| --- | --- | --- | --- | --- | --- | --- | --- | --- | --- | --- | --- | --- | --- | --- | --- | --- |
| CCCC(=O)OC[C@H]1O[C@@H](n2cc(-c3ccccn3)nn2)[C@H](OC(=O)CCC)[C@@H](OC(=O)CCC)[C@@H]1OC(=O)CCC [L-2] | 21.2% |  |  |  |  |  |  |  |  |  |  |  |  |  |  |  |
| CCCCCCC(=O)OCC1OC(n2cc(-c3ccccn3)nn2)C(OC(=O)CCCCCC)C(OC(=O)CCCCCC)C1OC(=O)CCCCCC.Cc1ccc(C(C)C)cc1.F[P-](F)(F)(F)(F)F.[Cl][Os+] (mixture of isomers) [Os-5] | >90% | 83.4% | 2.7 | 0/3 | 40< µM | 40< µM | 40< µM | 40< µM | 0/6 | 40< µM | 40< µM | 40< µM | 40< µM | 40< µM | 40< µM | IC50 [1]: 15.9 µM; MIC, Reference E. faecalis [4]: 40< µM; MIC (μM) (E. faecalis), Figure 11 [4]: ND (ND—not detected, MIC>40 µM); MIC against clinical VRE isolates (as a group) [5]: > 40 µM; MIC (μM) (S. aureus), Figure 11 [6]: ND (ND—not detected, MIC>40 µM); MIC against clinical MRSA isolates (as a group) [7]: > 40 µM |
| CCCCCCCC(=O)OCC1OC(n2cc(-c3ccccn3)nn2)C(OC(=O)CCCCCCC)C(OC(=O)CCCCCCC)C1OC(=O)CCCCCCC.Cc1ccc(C(C)C)cc1.F[P-](F)(F)(F)(F)F.[Cl][Os+] (mixture of isomers) [Os-6] | 88.4% | 76.9% | 2.8 | 0/3 | 40< µM | 40< µM | 40< µM | 40< µM | 0/6 | 40< µM | 40< µM | 40< µM | 40< µM | 40< µM | 40< µM | IC50 [2]: 16.5 µM; MIC, Reference E. faecalis [4]: 40< µM; MIC (μM) (E. faecalis), Figure 11 [4]: ND (ND—not detected, MIC>40 µM); MIC against clinical VRE isolates (as a group) [5]: > 40 µM; MIC (μM) (S. aureus), Figure 11 [6]: ND (ND—not detected, MIC>40 µM); MIC against clinical MRSA isolates (as a group) [7]: > 40 µM |
| CCCCCCC(=O)OC[C@H]1O[C@@H](n2cc(-c3ccccn3)nn2)[C@H](OC(=O)CCCCCC)[C@@H](OC(=O)CCCCCC)[C@@H]1OC(=O)CCCCCC [L-5] | 28.5% |  |  |  |  |  |  |  |  |  |  |  |  |  |  |  |
| CCCCCC(=O)OC[C@H]1O[C@@H](n2cc(-c3ccccn3)nn2)[C@H](OC(=O)CCCCC)[C@@H](OC(=O)CCCCC)[C@@H]1OC(=O)CCCCC [L-4] | 26.9% |  |  |  |  |  |  |  |  |  |  |  |  |  |  |  |
| CCCCC(=O)OC[C@H]1O[C@@H](n2cc(-c3ccccn3)nn2)[C@H](OC(=O)CCCC)[C@@H](OC(=O)CCCC)[C@@H]1OC(=O)CCCC [L-3] | 32.0% |  |  |  |  |  |  |  |  |  |  |  |  |  |  |  |
| CCCC(=O)OCC1OC(n2cc(-c3ccccn3)nn2)C(OC(=O)CCC)C(OC(=O)CCC)C1OC(=O)CCC.Cc1ccc(C(C)C)cc1.F[P-](F)(F)(F)(F)F.[Cl][Os+] (mixture of isomers) [Os-2] | >90% | 88% | 2.5 | 3/3 | 10 µM | 10 µM | 10 µM | 2.5—10 µM and 2.5 µM | 6/6 | 2.5 µM | 2.5 µM | 5 µM | 5 µM | 2.5 µM | 5 µM | IC50 [1]: 6.23 µM |
| O=C(OC[C@H]1O[C@@H](n2cc(-c3ccc4ccccc4n3)nn2)[C@H](OC(=O)c2ccccc2)[C@@H](OC(=O)c2ccccc2)[C@@H]1OC(=O)c1ccccc1)c1ccccc1 [L-7, 1-(2’,3’,4’,6’-tetra-O-benzoyl-β-D-glucopyranosyl)-4-(quinolin-2-yl)-1,2,3,-triazole] | 16.9% |  |  |  |  |  |  |  |  |  |  |  |  |  |  |  |
